Results published in patent CN105663037A, “一种阿莫西林溶液剂及其制备方法和用途” (Chengdu Qiankun Veterinary Pharmaceutical Co Ltd, priority 2016, dated 2016).

Legend:
[1] = Selection of mixed solvent (Table 4); format: physicochemical
[2] = cited from earlier work
[3] = in vivo, cited from earlier work

dissolution when amount of dimethyl sulfoxide is reduced ([1]; 25 g amoxicillin, less than 100 ml dimethyl sulfoxide): 不能完全溶解 | volume of dimethyl sulfoxide required to dissolve 25 g amoxicillin as stable solution ([1]; from results of 2.2 and 2.3): 100 mL
SMILES: CC1(C)S[C@@H]2[C@H](NC(=O)[C@H](N)c3ccc(O)cc3)C(=O)N2[C@H]1C(=O)O [阿莫西林]
stability under acidic conditions [2]: 稳定 | gastrointestinal absorption rate ([3]; po): 90% | half-life [3]: ~1.02 h
